Paper PMC11539229 (Antimicrobial Agents and Chemotherapy, 2024)
Values after ≈ are worked out from the molar mass of the structure shown. Like-named read-outs stand apart in the source and are kept apart here.

Columns and labels:
in vitro = in vitro ADME, canine; conditions: dog, MDCK-MDR1
Description: (§1) Studies were performed as described by Polli et al. ([31]), with minor modifications. GF120918 was used as the inhibitor of P-gp. Apical-to-basolateral and basolateral-to-apical transports were studied across MDR1-MDCKII cell monolayers in the absence and presence of the P-gp inhibitor GF120918, and the Papp (intrinsic apparent permeability) was estimated in both directions with or without inhibitor.

[1] = system: Madin-Darby canine kidney-MDR1; assay: in vitro; assay type: in vitro ADME
Description: as §1

P-glycoprotein (P-gp) = biological target: T1, P-glycoprotein (P-gp) (Homo sapiens, UniProt P08183); assay: Efflux ratio with and without P-gp inhibitor GF120918 in MDR1-MDCKII cells; assay type: in vitro ADME
T1 construct: expressed in transfected cells; host or cells: MDR1-MDCKII (Madin-Darby canine kidney cells expressing MDR1)
Description: The measured solubility in fasted state simulated intestinal fluid (FaSSIF) was high (Table 1). The permeability of GSK138 predicted from Madin-Darby canine kidney (MDCK) cells was also high (Table 1).
as §1

physchem = assay type: physicochemical
Description: Solubility assays were performed using a miniaturized shake flask method. Stock solutions (10 mM) of each test compound were used to prepare calibration standards (10–220 μM) in DMSO and to spike (1:50) duplicate aqueous samples of FaSSIF (simulating fasting state biorelevant media, pH 6.5) with a final DMSO concentration of 2%. After shaking for 2 h at 25°C, the solutions were filtered and analyzed by means of high-performance liquid chromatography with diode-array detection (HPLC-DAD) (Agilent 1200 Rapid Resolution HPLC with a diode array detector). Best-fit calibration curves were constructed using the calibration standards, which were used to determine the aqueous sample solubility ([32]).

recombinant InhA = recombinant InhA (Mycobacterium tuberculosis, UniProt P9WGR1); assay: Inhibition of recombinant InhA; assay type: biochemical, M. tuberculosis
Description: GSK138 inhibited recombinant InhA with an IC50 of 0.04 µM. The minimum inhibitory concentration (MIC) was 1 µM against M. tuberculosis H37Rv, and GSK138 retained its activity against intracellular bacteria growing inside THP-1-derived macrophages in vitro (MIC 0.9 µM).

[2] = system: H37Rv-Luc inside THP-1-derived macrophages; assay: Intracellular MIC in THP-1-derived macrophages, luciferase read-out; assay type: cell-based, M. tuberculosis; conditions: Mycobacterium tuberculosis, mean ± SD, read-out: Mtb intracell MIC
HepG2 cells [3] = assay type: cell-based; conditions: human, 48 h
Description: HepG2 cells were cultured using Eagle’s minimum essential media (EMEM) supplemented with 10% heat-inactivated FBS, 1% non-essential amino acid (NEAA), and 1% penicillin/streptomycin. Prior to addition of the cell suspension, 250 nL of test compounds per well was pre-dispensed in tissue culture-treated black clear-bottomed 384-well plates (Greiner, cat. no. 781091) with an Echo 555 instrument. After that, 25 µL of HepG2 (cat. no. ATCC HB-8065) cells (∼3,000 cells/well) grown to confluency in EMEM supplemented with 10% heat-inactivated FBS, 1% NEAA, and 1% penicillin/streptomycin were added to each well with the reagent dispenser. Plates were allowed to incubate at 37°C with 20% O2 and 5% CO2 for 48 hrs. After incubation, the plates were equilibrated to room temperature before ATP levels were measured with the CellTiter Glo kit (Promega) as the cell viability read-out. 25 µL of CellTiter Glo substrate dissolved in the buffer was added to each well. Plates were incubated at room temperature for 10 min for stabilization of luminescence signal and read on a View Lux luminometer with excitation and emission filters of 613 and 655 nm, respectively. The Tox50 value corresponds to the concentration of the compound necessary to inhibit 50% of cell growth.

HepG2 cells [4] = assay: Cell health assay (three-parameter imaging); assay type: cell-based, human
Description: This is a three-parameter automated imaging cell-based assay to measure the cytotoxic effect of compounds in human liver-derived HepG2 cells. Using fluorescent staining, we measured the following key parameters in this assay: nuclear size, mitochondrial membrane potential and plasma membrane permeability. HepG2 cells (ATCC HB-8065) were incubated with the test compounds in 384-well plates. After 48 h, the staining cocktail was added. Hoechst 33342 was used to stain nuclei and quantify changes in nuclear morphology. Tetramethylrhodamine, methyl ester is a cationic dye that accumulates in healthy mitochondria that maintain a mitochondrial membrane potential and leaks out of mitochondria when the mitochondrial membrane potential is dissipated. TOTO-3 iodide labels nuclei of permeabilized cells and is used to measure plasma membrane permeability. Following 45 min of incubation with these stains, the plates were sealed using a black seal for reading on an INCell Analyzer 2000 (GE Healthcare). Each parameter measurement produces the percentages of cells which are “live” or “dead.” The IC50 is defined as the compound concentration that inhibits 50% of cell growth.

[5] = Description: The Ames assay was carried out as previously described ([34]) using all strains.
hERG = hERG (Homo sapiens, UniProt Q12809); assay: hERG Qpatch; assay type: biochemical
Description: hERG activity was measured as previously described ([35]).

[6] = assay type: in vitro ADME
Description: To assess the susceptibility of GSK138 to P450-mediated phase I metabolism, metabolic stability was determined during incubation in CD1 mouse, Sprague Dawley rat, beagle dog, and human liver microsomes.
Human and animal microsomes and compounds were pre-incubated at 37°C prior to addition of NADPH to final protein concentration of 0.5 mg/mL and a final compound concentration of 0.5 µM. Quantitative analysis was performed using specific liquid chromatography-tandem mass spectrometry (LC-MS/MS) conditions. The half-life, elimination rate constant, and intrinsic clearance (mL/min/g tissue) were determined. The well-stirred model was used to translate to in vivo CI values (mL/min/kg).

[7] = system: drug-susceptible, MDR and XDR M.tb clinical isolates; assay: microbe, parasite or virus in culture; assay type: cell-based, M. tuberculosis; conditions: Mycobacterium tuberculosis
M. tuberculosis H37Rv [8] = assay: Acute murine model of intratracheal infection; assay type: in vivo, C57BL/6 mice; conditions: oral once daily for 8 days
M. tuberculosis H37Rv [9] = assay type: in vivo, BALB/c mice

Chain of recombinant InhA (P9WGR1 whole entry, looked up): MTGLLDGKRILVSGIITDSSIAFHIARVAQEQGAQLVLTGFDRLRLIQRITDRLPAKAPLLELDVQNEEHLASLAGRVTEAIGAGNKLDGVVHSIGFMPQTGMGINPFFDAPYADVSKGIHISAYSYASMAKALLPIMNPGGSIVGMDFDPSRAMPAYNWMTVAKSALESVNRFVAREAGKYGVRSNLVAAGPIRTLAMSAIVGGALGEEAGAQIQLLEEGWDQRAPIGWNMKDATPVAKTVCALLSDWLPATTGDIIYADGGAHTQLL
T1 sequence (P08183 whole entry): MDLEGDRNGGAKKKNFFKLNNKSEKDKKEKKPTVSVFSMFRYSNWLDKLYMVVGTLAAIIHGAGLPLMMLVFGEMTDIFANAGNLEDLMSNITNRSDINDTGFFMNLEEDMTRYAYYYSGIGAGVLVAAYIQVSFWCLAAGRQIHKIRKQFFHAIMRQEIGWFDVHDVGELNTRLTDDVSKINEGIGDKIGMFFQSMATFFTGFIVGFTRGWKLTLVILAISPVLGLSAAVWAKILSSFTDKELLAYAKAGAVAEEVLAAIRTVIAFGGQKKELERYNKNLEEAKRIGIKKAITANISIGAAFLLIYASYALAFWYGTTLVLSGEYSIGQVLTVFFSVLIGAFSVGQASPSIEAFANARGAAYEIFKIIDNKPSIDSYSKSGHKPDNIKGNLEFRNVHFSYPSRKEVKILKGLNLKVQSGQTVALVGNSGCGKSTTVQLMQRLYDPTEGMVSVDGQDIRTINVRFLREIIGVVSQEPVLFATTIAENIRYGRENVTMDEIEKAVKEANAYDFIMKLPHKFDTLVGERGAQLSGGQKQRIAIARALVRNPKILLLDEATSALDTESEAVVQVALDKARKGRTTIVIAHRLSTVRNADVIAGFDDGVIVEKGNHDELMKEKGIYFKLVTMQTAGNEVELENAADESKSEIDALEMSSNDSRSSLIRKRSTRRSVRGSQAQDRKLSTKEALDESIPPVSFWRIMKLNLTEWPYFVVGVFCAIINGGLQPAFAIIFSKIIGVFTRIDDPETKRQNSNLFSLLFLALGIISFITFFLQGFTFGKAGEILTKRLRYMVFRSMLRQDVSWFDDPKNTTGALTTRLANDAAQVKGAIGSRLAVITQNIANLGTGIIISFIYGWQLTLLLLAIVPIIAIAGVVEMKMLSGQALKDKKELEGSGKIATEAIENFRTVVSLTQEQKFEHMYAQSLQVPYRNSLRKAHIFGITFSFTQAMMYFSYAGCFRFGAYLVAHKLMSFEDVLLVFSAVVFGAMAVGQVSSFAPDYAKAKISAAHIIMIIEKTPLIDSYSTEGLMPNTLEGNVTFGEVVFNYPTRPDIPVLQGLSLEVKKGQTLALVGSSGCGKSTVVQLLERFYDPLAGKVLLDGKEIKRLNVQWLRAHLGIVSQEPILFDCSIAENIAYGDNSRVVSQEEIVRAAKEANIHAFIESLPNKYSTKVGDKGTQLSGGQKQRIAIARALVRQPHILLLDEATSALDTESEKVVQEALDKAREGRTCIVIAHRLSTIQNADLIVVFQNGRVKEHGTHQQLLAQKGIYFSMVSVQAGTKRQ
Chain of hERG (Q12809 whole entry): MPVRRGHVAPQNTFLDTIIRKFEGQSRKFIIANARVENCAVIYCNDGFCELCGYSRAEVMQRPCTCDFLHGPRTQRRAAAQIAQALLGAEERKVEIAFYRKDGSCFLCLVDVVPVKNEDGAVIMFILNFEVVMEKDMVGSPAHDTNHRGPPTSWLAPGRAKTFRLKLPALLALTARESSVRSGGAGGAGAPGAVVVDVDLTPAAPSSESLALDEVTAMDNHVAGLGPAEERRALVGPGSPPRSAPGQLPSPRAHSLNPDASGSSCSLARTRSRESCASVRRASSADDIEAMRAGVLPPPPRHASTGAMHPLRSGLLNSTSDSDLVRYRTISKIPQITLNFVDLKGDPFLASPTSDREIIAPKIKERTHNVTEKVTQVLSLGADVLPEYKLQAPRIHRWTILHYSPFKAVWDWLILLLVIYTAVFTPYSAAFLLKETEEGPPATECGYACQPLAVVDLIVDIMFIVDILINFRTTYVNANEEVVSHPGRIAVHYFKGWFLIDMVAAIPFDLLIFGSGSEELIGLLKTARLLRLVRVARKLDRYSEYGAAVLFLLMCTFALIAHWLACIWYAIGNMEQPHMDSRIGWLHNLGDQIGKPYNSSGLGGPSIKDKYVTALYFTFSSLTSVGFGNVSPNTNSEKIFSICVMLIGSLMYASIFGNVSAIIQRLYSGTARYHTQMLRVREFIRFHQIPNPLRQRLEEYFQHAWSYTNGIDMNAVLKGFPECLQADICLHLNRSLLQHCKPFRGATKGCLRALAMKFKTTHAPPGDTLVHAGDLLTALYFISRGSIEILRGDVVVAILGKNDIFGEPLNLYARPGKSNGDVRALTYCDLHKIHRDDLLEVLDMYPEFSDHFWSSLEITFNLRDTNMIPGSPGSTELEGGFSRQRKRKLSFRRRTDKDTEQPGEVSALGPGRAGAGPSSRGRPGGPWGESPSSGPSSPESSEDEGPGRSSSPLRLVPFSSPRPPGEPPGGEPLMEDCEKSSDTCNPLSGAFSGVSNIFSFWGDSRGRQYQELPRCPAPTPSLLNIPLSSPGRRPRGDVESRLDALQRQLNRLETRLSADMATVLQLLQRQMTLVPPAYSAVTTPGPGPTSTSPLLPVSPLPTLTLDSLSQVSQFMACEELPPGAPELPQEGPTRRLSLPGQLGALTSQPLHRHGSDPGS

Cc1csc([C@](C)(O)c2nnc(Nc3cc(C)n(Cc4csc(C)n4)n3)s2)n1 [GSK138]
Papp (in vitro): 37.4 ×10⁻⁶ cm/s
permeability predicted from MDCK cells [1]: high
P-gp substrate status from efflux ratio (P-glycoprotein (P-gp)): P-gp substrate
solubility in FaSSIF (physchem): high
solubility at 2 h (physchem; pH 6.5): 140 to 320 µM (≈ 60.7 to 139 µg/mL)
IC50 (recombinant InhA): 0.04 µM
MIC [2]: 0.9 µM (≈ 0.39 µg/mL)
HepG2 cytotoxicity Tox50 (HepG2 cells [3]): >100 µM
Cell health IC50 (nuclear size, mitochondrial membrane potential, and plasma membrane permeability) (HepG2 cells [4]; HepG2, 48 h): >199.5 µM
effect in the cell health assay (HepG2 cells [4]; membrane, nuclear and mitochondrial damages): no effect up to the highest concentration tested (200 µM)
Ames test [5]: Negative
IC50 (hERG): > 30 µM
in vitro clearance in liver microsomes ([6]; dog): moderate
in vitro clearance in liver microsomes ([6]; human): low
In vitro Clint dog ([6]; microsomes): 1.7 mL/min/g tissue
In vitro Clint human ([6]; microsomes): 0.3 mL/min/g tissue
In vitro Clint mouse ([6]; microsomes): 4.4 mL/min/g tissue
In vitro Clint rat ([6]; microsomes): 3.5 mL/min/g tissue
in vitro clearance in liver microsomes ([6]; mouse): moderate
in vitro clearance in liver microsomes ([6]; rat): moderate
MIC90 [7]: 3.75 µM (≈ 1.63 µg/mL)
effect on bacteria at the highest doses (M. tuberculosis H37Rv [8]): net killing of the bacteria
ED99 (dose producing a 2-log10 reduction in CFUs compared to untreated control mice) (M. tuberculosis H37Rv [8]; 95% CI 50–67): 57 mg/kg
EDmax (dose at which 90% of the maximum bactericidal effect was achieved) (M. tuberculosis H37Rv [8]; 95% CI 125 to >290): 167 mg/kg
effect of addition to PaL, R + GSK656, or RZ + GSK656 (M. tuberculosis H37Rv [9]; experiment 3, GSK138 200 mg/kg): did not significantly increase the activity
effect of addition to BPaL, BPa or BPa + GSK656 (M. tuberculosis H37Rv [9]; experiment 3, GSK138 200 mg/kg, 4 weeks (P < 0.01) and 8 weeks (P < 0.0001)): significantly increased the activity
effect of addition to BPa (M. tuberculosis H37Rv [9]; experiment 4, 8 weeks of treatment): additive effects
effect of addition to BPaL on bactericidal activity (M. tuberculosis H37Rv [9]; experiment 5, 4 weeks of treatment): significantly increased the bactericidal activity
